# From PMC10443802, “Targeting a xenobiotic transporter to ameliorate vincristine-induced sensory neuropathy” (JCI Insight, 2023)
# “And” between values parts separate entries of the source, which are not always exact repeats. Equal entries are not always repeated.
# Legend:
# mOATP1B2 [1] = target: T1, mOATP1B2 (Mus musculus, UniProt Q9JJL3); experiment: Vincristine uptake, HEK293 cells overexpressing mOATP1B2; type: in vitro ADME
# T1 sequence (Q9JJL3 1-689): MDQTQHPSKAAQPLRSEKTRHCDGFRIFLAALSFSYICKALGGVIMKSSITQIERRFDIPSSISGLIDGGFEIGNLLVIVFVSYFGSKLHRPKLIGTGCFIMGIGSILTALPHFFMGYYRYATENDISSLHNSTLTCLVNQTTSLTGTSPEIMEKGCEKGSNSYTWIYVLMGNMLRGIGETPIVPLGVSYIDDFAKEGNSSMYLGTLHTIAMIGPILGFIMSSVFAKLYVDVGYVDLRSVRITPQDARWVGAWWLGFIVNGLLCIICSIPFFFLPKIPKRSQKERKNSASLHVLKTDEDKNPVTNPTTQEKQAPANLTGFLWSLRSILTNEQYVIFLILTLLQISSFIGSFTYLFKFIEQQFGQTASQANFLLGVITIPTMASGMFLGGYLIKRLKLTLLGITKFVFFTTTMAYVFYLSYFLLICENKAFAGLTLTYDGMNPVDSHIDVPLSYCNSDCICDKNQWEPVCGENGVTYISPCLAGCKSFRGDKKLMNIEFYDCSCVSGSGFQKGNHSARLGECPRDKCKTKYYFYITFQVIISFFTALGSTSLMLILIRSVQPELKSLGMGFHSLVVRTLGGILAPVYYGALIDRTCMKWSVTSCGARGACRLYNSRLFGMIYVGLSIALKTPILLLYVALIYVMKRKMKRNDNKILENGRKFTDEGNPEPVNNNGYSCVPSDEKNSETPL
# Text: Relative uptake is expressed as percentage change compared with empty vector controls (n = 4–14 per group). […] Human OATP1B1 and OATP1B3 transporter–overexpressed cells were used as positive controls; empty vector controls were used as the negative control. LD, 100 bp ladder. […] Mechanical allodynia (C), thermal hyperalgesia (D), and sciatic nerve maximal action potential amplitudes (E) are expressed as percentage change relative to baseline values (n = 6–8 per group). Statistical analysis was performed using a 2-way ANOVA with Bonferroni’s post hoc test. **P < 0.01, ***P < 0.001, ****P < 0.0001, compared with baseline values. […] Data are shown as mean ± SEM.
# Axioskop WideField Light Microscope, as described previously (10). Representative images were captured with a QIClick Digital CCD color camera.
# The histograms of g-ratio (axonal diameter/whole fiber diameter as a measure of myelination degree in each fiber) distribution were generated. An observer blinded to the group compositions performed all the morphometric determinations. […]
# After incubation, transport was halted by aspirating radiolabeled drug, and rinsing the cells three times with ice-cold 1X PBS. Total radioactivity originating from the substrates was measured by lysing the cells with 1N NaOH, neutralized with 2N HCL, and measuring total radioactivity by liquid scintillation counting using an LS 6500 Counter (Beckman). […]
# THP1 = experiment: Cytotoxicity of vincristine with or without nilotinib, MTT assay, THP1; type: cell-based, human; conditions: individual replicates
# hOATP1C1 = hOATP1C1 (Homo sapiens, UniProt Q9NYB5); experiment: Substrate uptake in HEK293 cells overexpressing hOATP1C1; conditions: HEK293 OATP1C1
# Chain of hOATP1C1 (Q9NYB5 whole entry): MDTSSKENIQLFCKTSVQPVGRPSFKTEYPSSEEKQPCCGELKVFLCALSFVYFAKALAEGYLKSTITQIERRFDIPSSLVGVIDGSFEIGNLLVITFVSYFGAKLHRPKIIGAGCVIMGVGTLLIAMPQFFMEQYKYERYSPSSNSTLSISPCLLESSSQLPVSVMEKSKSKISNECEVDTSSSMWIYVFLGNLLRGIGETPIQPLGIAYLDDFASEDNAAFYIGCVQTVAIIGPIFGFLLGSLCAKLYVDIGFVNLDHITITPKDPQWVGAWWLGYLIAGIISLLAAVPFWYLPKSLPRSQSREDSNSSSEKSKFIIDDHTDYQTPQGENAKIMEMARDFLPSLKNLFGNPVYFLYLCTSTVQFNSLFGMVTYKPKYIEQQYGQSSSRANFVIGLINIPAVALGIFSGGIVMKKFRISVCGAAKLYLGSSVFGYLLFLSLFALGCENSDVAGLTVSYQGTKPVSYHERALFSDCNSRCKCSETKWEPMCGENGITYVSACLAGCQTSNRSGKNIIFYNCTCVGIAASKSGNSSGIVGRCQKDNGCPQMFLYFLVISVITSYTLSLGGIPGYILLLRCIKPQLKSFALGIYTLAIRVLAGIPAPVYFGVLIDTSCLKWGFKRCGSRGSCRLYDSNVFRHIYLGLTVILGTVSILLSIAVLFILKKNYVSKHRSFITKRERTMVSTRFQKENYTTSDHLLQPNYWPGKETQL
# Text: transfected with transporters of interest, including hOAT1, hOAT3, hOAT4, hOATP1A2, hOATP3A1, hOATP4A1, hOATP5A1, hOATP1C1, hOATP1B1, hOATP1B3, hOATP2B1, hOCT1, hOCT2, hOCTN1, hOCTN2, hASBT, hNTCP, hNPT1, hMATE1, hOSTα/β, hPEPT1, hPEPT2, rOatp1a1, rOatp1a4, rOatp1a5, rOatp1b2, rNtcp, rAsbt, rOat1, and rOct1. Cells were transfected with expression plasmid or vector control lacking any insert using Lipofectin reagent (Invitrogen). Sixteen hours thereafter, cells were washed with transport media (OPTIMEM, Invitrogen) and treated with radiolabeled drug. At various time intervals, cells were washed three times with ice-cold PBS and then lysed with 1% sodium dodecyl sulfate. The cellular radioactivity was quantified by liquid scintillation counting as described above. Similar analyses were performed in HEK293 cells transfected with hOATP1A2, hOATP1C1, mMATE1, and hMATE1, with cells seeded in poly lysine pre-coated 12-well plates. For hOATP1A2 and hOATP1C1, transient transfections were performed with either an empty vector, OATP1A2, or OATP1C1 using Lipofectamine 2000 according to the manufacturers protocol (Invitrogen). At 48 h post transfection, […]
# Samples were analyzed using real-time quantitative PCR and Taqman Probes (Applied Biosystems). The relative gene expression was determined using the ΔΔCt method, and normalized to the mouse or human housekeeping gene, GAPDH. […]
# hMATE1 = hMATE1 (Homo sapiens, UniProt Q96FL8); experiment: Substrate uptake in HEK293 cells overexpressing hMATE1; conditions: HEK293 human MATE1
# Chain of hMATE1 (Q96FL8 whole entry): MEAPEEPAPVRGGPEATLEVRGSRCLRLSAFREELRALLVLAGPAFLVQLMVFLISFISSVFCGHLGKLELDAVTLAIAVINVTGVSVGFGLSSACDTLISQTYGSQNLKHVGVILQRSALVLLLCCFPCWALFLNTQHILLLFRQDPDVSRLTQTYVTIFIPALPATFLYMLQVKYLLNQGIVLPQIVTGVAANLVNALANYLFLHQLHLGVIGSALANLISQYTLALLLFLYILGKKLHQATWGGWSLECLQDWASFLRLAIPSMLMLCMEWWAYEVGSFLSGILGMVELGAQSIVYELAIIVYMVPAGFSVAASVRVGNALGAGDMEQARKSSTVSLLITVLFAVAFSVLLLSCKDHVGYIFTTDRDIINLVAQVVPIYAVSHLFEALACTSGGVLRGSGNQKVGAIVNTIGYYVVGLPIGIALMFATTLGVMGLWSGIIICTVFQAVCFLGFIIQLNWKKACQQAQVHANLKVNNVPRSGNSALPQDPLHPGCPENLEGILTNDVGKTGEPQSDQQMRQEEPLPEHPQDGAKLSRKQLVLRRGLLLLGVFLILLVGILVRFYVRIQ
# Experimental: on OATP1B1, OATP1B3, or OATP1B2 function was evaluated using EβG (Axxora LLC) as the
# mOATP1B2 [2] = target: T1, mOATP1B2; experiment: Inhibition of EβG uptake in HEK293 cells overexpressing mOATP1B2; type: cell-based; conditions: HEK293 mOATP1B2; inhibitor 10 μM, 15-min pre-incubation
Structure (SMILES),Vincristine uptake (% of vector control) (mOATP1B2 [1]),"IC50 (THP1; Homo sapiens, THP-1, THP1 cells, vincristine + 1μM Nilotinib)","IC50 (THP1; Homo sapiens, THP-1, THP1 cells, vincristine alone)","IC50 (THP1; THP1 cells, vincristine alone)",Contribution of transporter to cellular uptake of vincristine (hOATP1C1),Contribution of transporter to cellular uptake of vincristine (hMATE1),EβG uptake (% of vehicle) (mOATP1B2 [2])
"CC[C@]1(O)C[C@H]2CN(CCc3c([nH]c4ccccc34)[C@@](C(=O)OC)(c3cc4c(cc3OC)N(C=O)[C@H]3[C@@](O)(C(=O)OC)[C@H](OC(C)=O)[C@]5(CC)C=CCN6CC[C@]43[C@@H]65)C2)C1 [Vincristine, vincristine]",209.00 % of vector control and 219.00 % of vector control and 238.00 % of vector control and 218.00 % of vector control and 216.00 % of vector control and 220.00 % of vector control,11 nM,15.4 nM,14.4 nM (2×) and 15.4 nM and 15.1 nM and 14.6 nM and 10.5 nM and 10.2 nM and 16.9 nM,do not appreciably contribute to the cellular uptake of vincristine,do not appreciably contribute to the cellular uptake of vincristine,
"Cc1cn(-c2cc(NC(=O)c3ccc(C)c(Nc4nccc(-c5cccnc5)n4)c3)cc(C(F)(F)F)c2)cn1 [Nilotinib, nilotinib]",,,,,,,37.5921 % of vehicle and 30.8257 % of vehicle and 32.2185 % of vehicle
